The results in this text go back to patent US20130165368A1, “ANTIMICROBIAL COMPOUNDS” (priority 2010, published 2013).

Converted amounts (≈) assume the structure as drawn. Like-named read-outs stand apart in the source and are kept apart here.

Holding throughout (type): cell-based
In experiment [1] the test system is Staphylococcus aureus. In words: MIC agar dilution, micro-organism 13 (6571). Conditions: Staphylococcus aureus, Staphylococcus aureus 6571, read-out: MIC. The gist of the method: (§1)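 Twofold dilutions of compound emulsions in water were set in Isosensitest agar with Brazier's CCEY medium, egg yolk and lysed horse blood. Spots of 1 µL from 0.5 McFarland suspensions diluted 1/15 were incubated aerobically at 37 °C and read at 22 and 48 h. MIC (mmol/L) was the lowest concentration giving <10 colonies.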
On the technique in general: Agar dilution tests growth on a series of plates holding different concentrations.

Experiment [2] has as its system Providencia rettgeri. In words: MIC agar dilution, micro-organism 3 (7475). Particulars: Providencia rettgeri 7475, read-out: MIC. In short, it runs like this:
as §1

Experiment [3] concerns Enterococcus faecium. Briefly: MIC agar dilution, micro-organism 16 (7171). Conditions: Enterococcus faecium 7171, read-out: MIC. In short, it runs like this:
as §1

In experiment [4] the test system is Steptococcus pyogenes. In words: MIC agar dilution, micro-organism 11 (8306). Particulars: Steptococcus pyogenes 8306, read-out: MIC. In short, it runs like this: as §1
In experiment [5] the test system is Candida glabrata. Briefly: MIC agar dilution, micro-organism 20 (3943). Conditions: Nakaseomyces glabratus, Candida glabrata 3943, read-out: MIC. The gist of the method: as §1
The test system of experiment [6] is Enterococcus casseliflavus (VRE) Clin waste. Briefly: MIC agar dilution, VRE strain 23. The method, then:
(§2) Molar equivalent concentrations were used to allow comparison between compounds of differing molecular mass. Due to weighing difficulties, any compound in solid form was melted in a water bath prior to dilution. To make ten-times strength concentrations, which takes into account agar dilution, 0.0352 mmol of each compound was weighed into plastic universal bottles and 4 mL of sterile distilled water (SDW) was added. To produce a homogenous emulsion the universals were vortexed; once achieved the emulsions were serial diluted by adding 2 mL to 2 mL of SDW.
(§3) For every 100 mL of Isosensitest agar (IST) (CM0471; Oxoid, Basingstoke, England), 3.1 g of the IST powder was added to 100 mL SDW (as per manufacturer's instructions) and sterilised for 15 minutes at 121° C. Once sterilised, the molten agar was cooled to 50° C. in a water-bath. Subsequently 4.8 g of CCEY powder (BC2160; Bioconnections, Wetherby, England), also known as Brazier's medium, was added to 100 mL SDW for every 100 mL of agar needed. This was then sterilised for 15 minutes at 121° C. Once sterilised the molten agar was cooled to 50° C. in a water-bath and 4 mL of egg-yolk emulsion (S2073; TCS Biosciences Ltd, Buckingham, United Kingdom) and 1 mL of lysed defibrinated horse blood (HB035; TCS Biosciences Ltd, Buckingham, United Kingdom) were also added for every 100 mL needed. Horse blood lysis is achieved by dilution to half concentration with SDW; when fully lysed the mixture will turn dark red in colour.
(§4) 18 mL agar was added to each universal and then poured into sterile Petri dishes. This step creates a 1/10 dilution resulting in agar plates of the required strength. Control plates for each set of strains were created by adding 18 mL of agar to 2 mL of SDW.
(§5) Suspensions of each bacterial species were prepared with a density equal to that of a 0.5 McFarland standard using a densitometer. All suspensions were made using sterile distilled water and fresh 18-20 hour cultures. As a 0.5 McFarland standard contains 1.5×10^8 CFU/mL and the multipoint inoculators applies 1 μL spots of liquid, each bacterial suspension was diluted 1/15 (20 μL suspension to 280 μL sterile distilled water).
(§6) Bacterial suspensions were prepared from fresh 18-24 hour cultures as previously described. 1 μL of each strain was inoculated onto all 100 agar plates containing a different chemical concentration and the 2 control plates. This was done using a multipoint inoculator which inoculates 20 strains per plate. All plates were incubated for 22 hours at 37° C. in aerobic conditions.
(§7) Each plate was examined for bacterial growth after 22 and 48 hours, with each being incubated in between examinations. A positive result was recorded as growth of ≧10 colonies. A negative result was recorded as growth of <10 colonies as this is equivalent to 99.9% inhibition. The lowest concentration of chemical that inhibited growth was recorded as the MIC. The results are recorded in Table IV below, where the numbers are quoted in mmol/L.
(§8) Given the positive performance of the ethoxylates of lauryl alcohol in reducing the MIC for a number of the micro-organisms tested, further MIC testing of Laureth-1 [C12E1] through to Laureth-8 [C12E8] was conducted on each of the following: • 10 strains of vancomycin-resistant enterococci (VRE)—listed in Table V below; and • 20 strains of methicillin-resistant Staphylococcus aureus (MRSA)—listed in Table VI.
(§9) The alkanol, alkanol derivatives, agar plates, and inocula were all prepared in the same way as described above.
(§10) The plates were examined in the same manner as described above and the results are recorded in Table VII below, where the numbers are quoted in mmol/L.

Experiment [7] concerns MRSA FRA 95035. Briefly: MIC agar dilution, MRSA strain 37. Conditions: Staphylococcus aureus. The method, then:
as §2, §3, §4, §5, §6, §7, §8, §9, §10

Experiment [8] has as its system MRSA GER 1966/97 (Hanover IIIc). Briefly: MIC agar dilution, MRSA strain 36. Particulars: Staphylococcus aureus. On the procedure: as §2, §3, §4, §5, §6, §7, §8, §9, §10
Experiment [9] deals with MRSA EMRSA 16 00998/95. Briefly: MIC agar dilution, MRSA strain 47. Particulars: Staphylococcus aureus. The method, then:
as §2, §3, §4, §5, §6, §7, §8, §9, §10

The test system of experiment [10] is MRSA BEL 97597. Briefly: MIC agar dilution, MRSA strain 33. Conditions: Staphylococcus aureus. On the procedure:
as §2, §3, §4, §5, §6, §7, §8, §9, §10

In experiment [11] the test system is MRSA EMRSA 16 21354/95. In words: MIC agar dilution, MRSA strain 44. Conditions: Staphylococcus aureus. The method, then: as §2, §3, §4, §5, §6, §7, §8, §9, §10
The test system of experiment [12] is MRSA EMRSA 16 07924/95. In words: MIC agar dilution, MRSA strain 49. Particulars: Staphylococcus aureus. The method, then:
as §2, §3, §4, §5, §6, §7, §8, §9, §10

Experiment [13] deals with Enterococcus faecalis (VRE) PHLS URINE 2000. In words: MIC agar dilution, VRE strain 21. On the procedure:
as §2, §3, §4, §5, §6, §7, §8, §9, §10

By MIC is commonly meant the lowest concentration found to suppress growth. `CCCCCCCCCCCCCCCCO` [C0, 1-Hexadecanol, reference compound]: the MIC in [1] (22 h, 22 hrs) was > 880 µM; in experiment [1] (48 h, 48 hrs) it was > 880 µM; in experiment [2] (22 hrs), 110 µM (≈ 26.7 µg/mL); in experiment [2] (48 hrs), 110 µM (≈ 26.7 µg/mL); in experiment [3] (22 hrs) it was > 880 µM; in [3] (48 hrs), > 880 µM. Further, the MIC in experiment [4] (22 h, 22 hrs) is 220 µM (≈ 53.3 µg/mL); in [4] (48 h, 48 hrs) it was 440 µM (≈ 107 µg/mL); in experiment [5] (22 h, 22 hrs), 880 µM (≈ 213 µg/mL); in [5] (48 h, 48 hrs), > 880 µM.

In the case of `CCCCCCCCCCCCOCCO` [L1, Ethylene Glycol Monododecyl Ether], the MIC in [6] (22 hrs) amounted to 220 µM (≈ 50.7 µg/mL); in experiment [6] (48 hrs) it was 220 µM (≈ 50.7 µg/mL); in experiment [7] (22 hrs) it was 220 µM (≈ 50.7 µg/mL); in experiment [7] (48 hrs), 220 µM (≈ 50.7 µg/mL); in experiment [1] (22 h, 22 hrs), 220 µM (≈ 50.7 µg/mL); in experiment [1] (48 h, 48 hrs), 220 µM (≈ 50.7 µg/mL). In addition, the MIC in [8] (22 hrs) is 220 µM (≈ 50.7 µg/mL); in experiment [8] (48 hrs), 220 µM (≈ 50.7 µg/mL); in [2] (22 hrs), > 880 µM; in experiment [2] (48 hrs) it was > 880 µM; in [3] (22 hrs), > 880 µM; in experiment [3] (48 hrs) it was > 880 µM. Further, the MIC in experiment [4] (22 h, 22 hrs) stood at 220 µM (≈ 50.7 µg/mL); in [4] (48 h, 48 hrs) it was 220 µM (≈ 50.7 µg/mL); in experiment [9] (22 hrs) it was 220 µM (≈ 50.7 µg/mL); in experiment [9] (48 hrs), 220 µM (≈ 50.7 µg/mL); in [10] (22 hrs), 220 µM (≈ 50.7 µg/mL); in [10] (48 hrs), 220 µM (≈ 50.7 µg/mL). Also, the MIC in experiment [11] (22 hrs) amounted to 220 µM (≈ 50.7 µg/mL); in experiment [11] (48 hrs) it was 220 µM (≈ 50.7 µg/mL); in experiment [12] (22 hrs), 220 µM (≈ 50.7 µg/mL); in experiment [12] (48 hrs), 220 µM (≈ 50.7 µg/mL); in [5] (22 h, 22 hrs) it was 220 µM (≈ 50.7 µg/mL); in experiment [5] (48 h, 48 hrs) it was 220 µM (≈ 50.7 µg/mL). In addition, the MIC in [13] (22 hrs) and in [13] (48 hrs) was 220 µM (≈ 50.7 µg/mL) throughout.

As for `CCCCCCCCCCCCOCCOCCOCCOCCO` [L4, Tetraethylene Glycol Monododecyl Ether], the MIC in [6] (22 hrs) is 110 µM (≈ 39.9 µg/mL); in [6] (48 hrs), 110 µM (≈ 39.9 µg/mL); in experiment [7] (22 hrs) it was 55 µM (≈ 19.9 µg/mL); in experiment [7] (48 hrs), 55 µM (≈ 19.9 µg/mL); in experiment [1] (22 h, 22 hrs), 110 µM (≈ 39.9 µg/mL); in experiment [1] (48 h, 48 hrs), 110 µM (≈ 39.9 µg/mL). Also, the MIC is 55 µM (≈ 19.9 µg/mL) in experiment [8] (22 hrs); 55 µM (≈ 19.9 µg/mL) in experiment [8] (48 hrs); > 880 µM in [2] (22 hrs); > 880 µM in [2] (48 hrs); 220 µM (≈ 79.8 µg/mL) in experiment [3] (22 hrs); 220 µM (≈ 79.8 µg/mL) in experiment [3] (48 hrs). Besides, the MIC in [4] (22 h, 22 hrs) was ≤ 50 µM; in experiment [4] (48 h, 48 hrs) it was ≤ 50 µM; in [9] (22 hrs) it was 55 µM (≈ 19.9 µg/mL); in [9] (48 hrs), 55 µM (≈ 19.9 µg/mL); in experiment [10] (22 hrs), 55 µM (≈ 19.9 µg/mL); in experiment [10] (48 hrs) it was 55 µM (≈ 19.9 µg/mL). Besides, the MIC in experiment [11] (22 hrs) is 55 µM (≈ 19.9 µg/mL); in experiment [11] (48 hrs), 55 µM (≈ 19.9 µg/mL); in experiment [12] (22 hrs), 55 µM (≈ 19.9 µg/mL); in experiment [12] (48 hrs), 55 µM (≈ 19.9 µg/mL); in experiment [5] (22 h, 22 hrs), 110 µM (≈ 39.9 µg/mL); in experiment [5] (48 h, 48 hrs), 110 µM (≈ 39.9 µg/mL). Besides, the MIC in experiment [13] (22 hrs) and in experiment [13] (48 hrs) was 110 µM (≈ 39.9 µg/mL) each time.
